From patent publication US12678445B2, “Methods for treating glioblastoma” (BOARD OF REGENTS, THE UNIVERSITY OF TEXAS SYSTEM, priority 2020, dated 2026) come the findings set out here.

Molecules are shown by their SMILES.

The subject of experiment [1] is murine GBM cell lines (GL261). The experiment in a line: GBM (GL261) tumor bearing mice: tumor growth and survival. The experiment is classed as in vivo. The conditions noted are these: FIG. 4. The text has this:
(§1) To test this hypothesis, the inventors crossed LysM^cre (Jackson Laboratory. 004781) and KDm6B^fl/fl (Jackson Laboratory, 029615) mice to generate LysM^creKDm6B^fl/fl mice. The inventors inoculated murine GBM cell lines (GL261) into the LysM^creKDm6B^fl/fl mice (FIG. 5). […] The pre-clinical data provide a strong rationale of testing KDM6B inhibitor in clinic in combination with immune checkpoint therapy.

The next experiment concerns myeloid cells. The experiment in a line: Macrophage / myeloid cell phenotype in GBM tumor bearing mice. The experiment is classed as in vivo. The conditions noted are these: compared with myeloid specific depletion of KDM6B (increasing type I and type II IFN responses and antigen presenting pathways).
Text: as §1

Turning to `CCOC(=O)CCNc1cc(N2CCc3ccccc3CC2)nc(-c2ccccn2)n1` [GSK-J4], in experiment [1], the survival entry is recorded as “improved survival” and the tumor growth entry is given as “attenuated tumor growth”. In addition, the “changes of macrophage phenotype” value in the experiment on myeloid cells was “could recapitulate the changes of macrophage phenotype”.
